Like-named read-outs stand apart in the source and are kept apart here. Non-standard residues stand in square brackets, D forms with d. Residues, ends and D or L forms follow the SMILES beside them. β3hE = N[C@@H](CCC(=O)O)CC(=O)O; β3hQ = NC(=O)CC[C@H](N)CC(=O)O; β3hD = NC(CC(=O)O)CC(=O)O; β3hS = N[C@@H](CO)CC(=O)O
Legend:
p300/CBP [1] = molecular target: p300/CBP; parameters: method as in ref 2 (a number printed in a supplementary file, which may have a reference list of its own: not looked up in the article's list); conditions: ITC, 68% confidence intervals in brackets; read-out: Direct binding to p300/CBP, KD; cited from earlier work
p300–HIF-1α complex = experiment: NMR competition, p300 with equimolar HIF-1α and CITED2 peptide (1H–15N HSQC); assay type: binding, human; conditions: 13C,15N-p300_330–424, 1.2 eq of each peptide, 10 mM Tris pH 6.9, 50 mM NaCl, 1 mM DTT, 298 K
Description: To investigate the reversibility of the competition, samples containing p300 with equimolar amounts of HIF-1α and CITED2_218–256 or CITED2ΔN were prepared. […] (Table S1, ESI ^†). […]
a = KHIF + KCIT + [HIF]t + [CIT]t − [P]t (16)
b = KHIFKCIT + KHIF([CIT]t − [P]t) + KCIT([HIF]t − [P]t) (17)
KHIF = dissociation constant for Flu-HIF-1α, KCIT = dissociation constant for the competitor CITED2 or variant, [CIT]t = total concentration of the competitor CITED2 or variant, [P]t = total concentration of […]
Fitted parameters were: KHIF, KCIT, [HIF]t, [P]t, rP:HIF, rHIF from which KHIF, rP:HIF, rHIF, [HIF]t were kept constant during fitting. KHIF, rP:HIF, rHIF was determined in a separate experiment using HIF-1α776-826 as a competitor
(Fig. S3) [HIF]t was determined using fluorescence intensity measurements relative to a fluorescein calibration curve. [P]t was kept as a floating parameter to account for incompetent protein fraction.
Anisotropy values were normalized and represented as ligand-bound (Lb) values (Eq. 19.) L = (r − rHIF) ∗ [HIF] (19) […]
into three samples: to the first CITED2224-256 was added, to the second CITED2218-256 was added in 1.2 equivalent relative to p300 concentration, and to the third, same volume of buffer was added, and concentrated down to final sample volume. Concentrations were determined based on UV absorbance at 280 nm for p300 and CITED2 variants and at 205 nm for HIF-1α. […]

p300-HIF-1α complex = molecular target: p300-HIF-1α complex; parameters: method as in ref 2 (a number printed in a supplementary file, which may have a reference list of its own: not looked up in the article's list); conditions: ITC titration against p300-HIF-1α complex, 68% confidence intervals in brackets; read-out: Competition with HIF-1α, KD, apparent; cited from earlier work
[2] = molecular target: CBP bound Alexa594-CITED2; parameters: method as in 3 sources, one per row (each row's own in cited_ref): ref 1 (a number printed in a supplementary file, which may have a reference list of its own: not looked up in the article's list) ||| ref 3 (a number printed in a supplementary file, which may have a reference list of its own: not looked up in the article's list) ||| ref 4 (a number printed in a supplementary file, which may have a reference list of its own: not looked up in the article's list); conditions: FA titration against CBP bound Alexa594-CITED2; read-out: Direct binding to p300/CBP, KD, apparent; cited from earlier work
p300/CBP [3] = molecular target: p300/CBP; parameters: method as in ref 1 (a number printed in a supplementary file, which may have a reference list of its own: not looked up in the article's list); conditions: bio-layer interferometry; read-out: Direct binding to p300/CBP, KD; cited from earlier work
[4] = molecular target: CBP bound Alexa594-HIF-1α; parameters: method as in 3 sources, one per row (each row's own in cited_ref): ref 1 (a number printed in a supplementary file, which may have a reference list of its own: not looked up in the article's list) ||| ref 3 (a number printed in a supplementary file, which may have a reference list of its own: not looked up in the article's list) ||| ref 4 (a number printed in a supplementary file, which may have a reference list of its own: not looked up in the article's list); conditions: FA titration against CBP bound Alexa594-HIF-1α; read-out: Competition with HIF-1α, KD, apparent; cited from earlier work
[5] = molecular target: T1, p300_330–420 (TAZ1 domain) (Homo sapiens, UniProt Q09472); experiment: ITC direct titration to p300; assay type: binding; conditions: 5 µM p300_330–420 in cell, 60 µM ligand in syringe, 35 °C, 40 mM Na-phosphate pH 7.5, 100 mM NaCl, 1 mM DTT, global fit with ternary intermediate model, 68% confidence intervals in brackets, read-out: Direct binding to p300, K d
T1 construct: from residues 330-420 (used for FA and ITC experiments); GST (N, cleaved yes); made in house; host or cells: E. coli BL21 pLysS (pGEX-4T-1)

p300–Flu-HIF-1α = molecular target: T2, p300–Flu-HIF-1α (Homo sapiens, UniProt Q09472); experiment: Fluorescence anisotropy competition against p300–Flu-HIF-1α; assay type: binding; conditions: 50 nM p300_330–420, 25 nM Flu-HIF-1α786–826 tracer, 40 mM Na-phosphate, 100 mM NaCl, 1 mM DTT, 0.01% Triton-X, pH 7.4, 10 min at 35 °C; fixed KD = 64 nM for tracer; three repeats; read-out: Kd,app FA competition against p300–Flu-HIF-1α
T2 construct: from residues 330-420 (used for FA and ITC experiments); GST (N, cleaved yes); made in house; host or cells: p300: E. coli BL21 pLysS (pGEX-4T-1); tracer peptide: solid-phase synthesis
T2 sequence (Q09472 330-420): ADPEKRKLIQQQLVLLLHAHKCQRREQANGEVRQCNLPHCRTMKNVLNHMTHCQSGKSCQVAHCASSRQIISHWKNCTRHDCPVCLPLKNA

T1 sequence (Q09472 330-420): as above

Question: Which Kd (p300/CBP [1]) does the source give for “CITED2_224–259: CITED2 residues 224–259, longer C terminus, without N-terminal tail (DEEVLMSLVIEMGLDRIKELPELWLGQNEFDFMTDF; UniProt Q99967 224-259, looked up, fragment)” here?
Answer: 9 nM

Question: What about the “Species observed in sample with equimolar HIF-1α and CITED2 peptide (reversibility of competition)” value (p300–HIF-1α complex) of the same compound?
Answer: did not influence competition efficiency or unidirectionality

Question: And the Kd (p300-HIF-1α complex)?
Answer: 12 nM

Question: With “CITED2216-269: CITED2 residues 216–269, previously reported (NVIDTDFIDEEVLMSLVIEMGLDRIKELPELWLGQNEFDFMTDFVCKQQPSRVS; UniProt Q99967 216-269, looked up, fragment)” as the compound, how does the Kd [2] read?
Answer: 10 ± 1 nM

Question: What about the Kd (p300/CBP [3]) of the same compound?
Answer: 9 ± 2 nM

Question: And the Kd (p300/CBP [1])?
Answer: 26 nM

Question: What about the Kd [4] of the same compound?
Answer: 0.2 ± 0.1 nM

Question: What about the Kd (p300-HIF-1α complex) of the same compound?
Answer: 1.1 nM

Question: For “CITED2216-246: CITED2 residues 216–246, previously reported (NVIDTDFIDEEVLMSLVIEMGLDRIKELPEL; UniProt Q99967 216-246, looked up, fragment)”, which Kd [2] is on record?
Answer: 5000 ± 1000 nM

Question: What about the Kd [4] of the same compound?
Answer: 210 ± 20 nM

Question: With HIF-1α786-826: HIF-1α residues 786–826 as the compound, how does the Kd (p300/CBP [1]) read?
Answer: 43 nM

Question: With `CC[C@H](C)[C@H](NC(C)=O)C(=O)N[C@@H](CC(=O)O)C(=O)N[C@H](C(=O)N[C@@H](CC(=O)O)C(=O)N[C@@H](Cc1ccccc1)C(=O)N[C@H](C(=O)N[C@@H](CC(=O)O)C(=O)N[C@@H](CCC(=O)O)C(=O)N[C@@H](CCC(=O)O)C(=O)N[C@H](C(=O)N[C@@H](CC(C)C)C(=O)N[C@@H](CCSC)C(=O)N[C@@H](CO)C(=O)N[C@@H](CC(C)C)C(=O)N[C@H](C(=O)N[C@H](C(=O)N[C@@H](CCC(=O)O)C(=O)N[C@@H](CCSC)C(=O)NCC(=O)N[C@@H](CC(C)C)C(=O)N[C@@H](CC(=O)O)C(=O)N[C@@H](CCCNC(=N)N)C(=O)N[C@H](C(=O)N[C@@H](CCCCN)C(=O)N[C@@H](CCC(=O)O)C(=O)N[C@@H](CC(C)C)C(=O)N1CCC[C@H]1C(=O)N[C@@H](CCC(=O)O)C(=O)N[C@@H](CC(C)C)C(=O)N[C@@H](Cc1c[nH]c2ccccc12)C(=O)N[C@@H](CC(C)C)C(=O)NCC(=O)N[C@@H](CCC(N)=O)CC(=O)N[C@@H](CC(N)=O)C(=O)N[C@@H](CCC(=O)O)CC(=O)N[C@@H](Cc1ccccc1)C(=O)N[C@@H](CC(=O)O)CC(=O)N[C@@H](Cc1ccccc1)C(=O)N[C@@H](CCSC)C(N)=O)[C@@H](C)CC)[C@@H](C)CC)C(C)C)C(C)C)[C@@H](C)CC)[C@@H](C)O` [compound 4] (Ac-IDTDFIDEEVLMSLVIEMGLDRIKELPELWLG[β3hQ]N[β3hE]F[β3hD]FM-NH2) as the compound, how does the Kd [5] read?
Answer: 17 nM

Question: And the Kd (p300–Flu-HIF-1α)?
Answer: 1.7 ± 0.7 nM

Question: For `CC[C@H](C)[C@H](NC(C)=O)C(=O)N[C@@H](CC(=O)O)C(=O)N[C@H](C(=O)N[C@@H](CC(=O)O)C(=O)N[C@@H](Cc1ccccc1)C(=O)N[C@H](C(=O)N[C@@H](CC(=O)O)C(=O)N[C@@H](CCC(=O)O)C(=O)N[C@@H](CCC(=O)O)C(=O)N[C@H](C(=O)N[C@@H](CC(C)C)C(=O)N[C@@H](CCSC)C(=O)N[C@@H](CO)C(=O)N[C@@H](CC(C)C)C(=O)N[C@H](C(=O)N[C@H](C(=O)N[C@@H](CCC(=O)O)C(=O)N[C@@H](CCSC)C(=O)NCC(=O)N[C@@H](CC(C)C)C(=O)N[C@@H](CC(=O)O)CC(=O)N[C@H](C(=O)N[C@@H](CCC(=O)O)CC(=O)N[C@@H](CC(C)C)C(=O)N1CCC[C@H]1C(=O)N[C@@H](CCC(=O)O)C(=O)N[C@@H](CC(C)C)C(=O)N[C@@H](Cc1c[nH]c2ccccc12)C(=O)N[C@@H](CC(C)C)C(=O)NCC(=O)N[C@@H](CCC(N)=O)C(=O)N[C@@H](CC(N)=O)C(=O)N[C@@H](CCC(=O)O)C(=O)N[C@@H](Cc1ccccc1)C(=O)N[C@@H](CC(=O)O)C(=O)N[C@@H](Cc1ccccc1)C(=O)N[C@@H](CCSC)C(N)=O)[C@@H](C)CC)[C@@H](C)CC)C(C)C)C(C)C)[C@@H](C)CC)[C@@H](C)O` [3c] (Ac-IDTDFIDEEVLMSLVIEMGL[β3hD]I[β3hE]LPELWLGQNEFDFM-NH2), which Kd [5] is on record?
Answer: 29 nM

Question: What about the Kd (p300–Flu-HIF-1α) of the same compound?
Answer: 76 ± 6 nM

Question: With `CC[C@H](C)[C@H](NC(C)=O)C(=O)N[C@@H](CC(=O)O)C(=O)N[C@H](C(=O)N[C@@H](CC(=O)O)C(=O)N[C@@H](Cc1ccccc1)C(=O)N[C@H](C(=O)N[C@@H](CC(=O)O)C(=O)N[C@@H](CCC(=O)O)C(=O)N[C@@H](CCC(=O)O)CC(=O)N[C@H](C(=O)N[C@@H](CC(C)C)C(=O)N[C@@H](CCSC)C(=O)N[C@@H](CO)CC(=O)N[C@@H](CC(C)C)C(=O)N[C@H](C(=O)N[C@H](C(=O)N[C@@H](CCC(=O)O)CC(=O)N[C@@H](CCSC)C(=O)NCC(=O)N[C@@H](CC(C)C)C(=O)N[C@@H](CC(=O)O)C(=O)N[C@@H](CCCNC(=N)N)C(=O)N[C@H](C(=O)N[C@@H](CCCCN)C(=O)N[C@@H](CCC(=O)O)C(=O)N[C@@H](CC(C)C)C(=O)N1CCC[C@H]1C(=O)N[C@@H](CCC(=O)O)C(=O)N[C@@H](CC(C)C)C(=O)N[C@@H](Cc1c[nH]c2ccccc12)C(=O)N[C@@H](CC(C)C)C(=O)NCC(=O)N[C@@H](CCC(N)=O)C(=O)N[C@@H](CC(N)=O)C(=O)N[C@@H](CCC(=O)O)C(=O)N[C@@H](Cc1ccccc1)C(=O)N[C@@H](CC(=O)O)C(=O)N[C@@H](Cc1ccccc1)C(=O)N[C@@H](CCSC)C(N)=O)[C@@H](C)CC)[C@@H](C)CC)C(C)C)C(C)C)[C@@H](C)CC)[C@@H](C)O` [compound 2] (Ac-IDTDFIDE[β3hE]VLM[β3hS]LVI[β3hE]MGLDRIKELPELWLGQNEFDFM-NH2) as the compound, how does the Kd [5] read?
Answer: 16 nM

Question: And the Kd (p300–Flu-HIF-1α)?
Answer: 4.9 ± 0.8 nM

Question: What does the source list for “CITED2216-248: CITED2 residues 216–248, previously reported (NVIDTDFIDEEVLMSLVIEMGLDRIKELPELWL; UniProt Q99967 216-248, looked up, fragment)”?
Answer: Kd (p300/CBP [1]): 303 nM; Kd (p300-HIF-1α complex): 47 nM
